Results reported in ChEMBL document CHEMBL1201862, “PubChem BioAssay data set” (2004).
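Protocol summary: plate cells (96-well), add compound at 5 concentrations, incubate 48 h, interpolate endpoints linearly. GI50 = concentration required for 50% inhibition of growth.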 Active and inactive are the calls of the source. Rule as the data show it: active = GI50 up to about 1.1 µM and inactive = higher.

Assays:
Assay in all cases: growth of human tumour cells (NCI), 48 h
[1] = test system: CAKI-1
[2] = test system: COLO 205
[3] = test system: HCT-116
[4] = test system: HOP-92
[5] = test system: HT-29
[6] = test system: K562
[7] = test system: KM12
[8] = test system: M14
[9] = test system: NCI-H460
[10] = test system: OVCAR-3
[11] = test system: RPMI-8226
[12] = test system: SF-295
[13] = test system: SK-MEL-5
[14] = test system: SK-OV-3
[15] = test system: TK-10
[16] = test system: RXF 393
[17] = test system: DU-145
[18] = test system: PC-3
[19] = test system: T47D

SMILES	GI50 [1]	GI50 [2]	GI50 [3]	GI50 [4]	GI50 [5]	GI50 [6]	GI50 [7]	GI50 [8]	GI50 [9]	GI50 [10]	GI50 [11]	GI50 [12]	GI50 [13]	GI50 [14]	GI50 [15]	GI50 [16]	GI50 [17]	GI50 [18]	GI50 [19]
C=CC(=O)NCNC(=O)C=C	> 100 µM (inactive)	> 100 µM (inactive)	> 100 µM (inactive)	> 100 µM (inactive)	> 100 µM (inactive)	> 100 µM (inactive)	> 100 µM (inactive)	> 100 µM (inactive)	> 100 µM (inactive)	> 100 µM (inactive)	> 100 µM (inactive)	> 100 µM (inactive)	> 100 µM (inactive)	> 100 µM (inactive)	> 100 µM (inactive)				
Cc1cc(Cl)ccc1NC(=O)C(=O)Cc1ccc([N+](=O)[O-])c([N+](=O)[O-])c1CC(=O)C(=O)Nc1ccc(Cl)cc1C	> 100 µM (inactive)	61.1 µM (inactive)	> 100 µM (inactive)	82 µM (inactive)	> 100 µM (inactive)	> 100 µM (inactive)	> 100 µM (inactive)	> 100 µM (inactive)	> 100 µM (inactive)	70.3 µM (inactive)	> 100 µM (inactive)	> 100 µM (inactive)	> 100 µM (inactive)	> 100 µM (inactive)	> 100 µM (inactive)	> 100 µM (inactive)			
NC(=O)c1csc(C2CCC(CO)O2)n1 (stereo not given)	> 100 µM (inactive)	> 100 µM (inactive)	> 100 µM (inactive)	> 100 µM (inactive)	> 100 µM (inactive)	> 100 µM (inactive)	> 100 µM (inactive)	> 100 µM (inactive)	> 100 µM (inactive)	> 100 µM (inactive)	> 100 µM (inactive)	> 100 µM (inactive)		> 100 µM (inactive)	> 100 µM (inactive)				
CSc1cc(Cl)c(C)cc1S(=O)(=O)NC(=O)NNc1ccc(F)c(Cl)c1	> 100 µM (inactive)	> 100 µM (inactive)	> 100 µM (inactive)		> 100 µM (inactive)	> 100 µM (inactive)	> 100 µM (inactive)	> 100 µM (inactive)	> 100 µM (inactive)	> 100 µM (inactive)		> 100 µM (inactive)	> 100 µM (inactive)	> 100 µM (inactive)		> 100 µM (inactive)	> 100 µM (inactive)	> 100 µM (inactive)	> 100 µM (inactive)
CC(C)=NNC(=S)NC12CC3CC(CC(C3)C1)C2	> 100 µM (inactive)	> 100 µM (inactive)	> 100 µM (inactive)	> 100 µM (inactive)	> 100 µM (inactive)	> 100 µM (inactive)	> 100 µM (inactive)	> 100 µM (inactive)	> 100 µM (inactive)	> 100 µM (inactive)	> 100 µM (inactive)	> 100 µM (inactive)	> 100 µM (inactive)	> 100 µM (inactive)	> 100 µM (inactive)	> 100 µM (inactive)			
Cc1cc(C)n(C(C)(C(=O)Cc2ccccc2)n2nc(C)cc2C)n1	> 100 µM (inactive)	> 100 µM (inactive)	> 100 µM (inactive)	> 100 µM (inactive)	> 100 µM (inactive)	> 100 µM (inactive)	> 100 µM (inactive)	> 100 µM (inactive)	> 100 µM (inactive)	> 100 µM (inactive)	> 100 µM (inactive)	> 100 µM (inactive)	> 100 µM (inactive)	> 100 µM (inactive)	> 100 µM (inactive)	> 100 µM (inactive)	> 100 µM (inactive)	> 100 µM (inactive)	> 100 µM (inactive)
Cn1c2c(c3ccccc31)CCN(CCN1CCN(c3ccccc3)CC1)C2=O	> 100 µM (inactive)	> 100 µM (inactive)	58.1 µM (inactive)	31.2 µM (inactive)	> 100 µM (inactive)	> 100 µM (inactive)		> 100 µM (inactive)	> 100 µM (inactive)		> 100 µM (inactive)	> 100 µM (inactive)	61.1 µM (inactive)	> 100 µM (inactive)	> 100 µM (inactive)	26.7 µM (inactive)			
O=C(/C=C/c1cccc2ccccc12)c1ccccc1Cl	14.4 µM (inactive)	> 100 µM (inactive)	8.95 µM (inactive)	13 µM (inactive)	13.6 µM (inactive)	5.57 µM (inactive)	8.63 µM (inactive)	15.5 µM (inactive)	13.5 µM (inactive)	12.9 µM (inactive)	5.43 µM (inactive)		16.9 µM (inactive)	21.4 µM (inactive)	14.6 µM (inactive)	16.7 µM (inactive)			
C=C1CC(C/C=C(\C)CC2CC(=C)C(=O)O2)OC1=O (stereo not given)	> 100 µM (inactive)	> 100 µM (inactive)	> 100 µM (inactive)	> 100 µM (inactive)	> 100 µM (inactive)	> 100 µM (inactive)	> 100 µM (inactive)	> 100 µM (inactive)	> 100 µM (inactive)	> 100 µM (inactive)		> 100 µM (inactive)	> 100 µM (inactive)	> 100 µM (inactive)	> 100 µM (inactive)	> 100 µM (inactive)			
CC(C)(C)C[P+](C)(C)c1ccccc1	> 100 µM (inactive)	> 100 µM (inactive)	> 100 µM (inactive)	> 100 µM (inactive)	> 100 µM (inactive)	34.4 µM (inactive)	> 100 µM (inactive)	> 100 µM (inactive)	> 100 µM (inactive)	91.2 µM (inactive)	> 100 µM (inactive)	> 100 µM (inactive)	> 100 µM (inactive)	> 100 µM (inactive)	> 100 µM (inactive)	> 100 µM (inactive)			
Cc1ccc(-n2c(=S)[nH]c3ccc(Br)cc3c2=O)cc1		> 100 µM (inactive)	> 100 µM (inactive)	> 100 µM (inactive)	> 100 µM (inactive)	> 100 µM (inactive)	> 100 µM (inactive)		> 100 µM (inactive)	> 100 µM (inactive)	> 100 µM (inactive)	> 100 µM (inactive)			> 100 µM (inactive)	> 100 µM (inactive)			
NS(=O)(=O)c1ccc(NC(=O)CC(=O)Nc2ccc(S(N)(=O)=O)cc2)cc1	> 100 µM (inactive)	> 100 µM (inactive)	> 100 µM (inactive)	> 100 µM (inactive)	> 100 µM (inactive)	> 100 µM (inactive)		> 100 µM (inactive)		> 100 µM (inactive)	> 100 µM (inactive)	> 100 µM (inactive)	> 100 µM (inactive)	> 100 µM (inactive)	> 100 µM (inactive)				
CCN(CC)CC(=O)Nc1ccc2c(c1)C(=O)c1ccc(NC(=O)CN(CC)CC)cc1C2=O	70.1 µM (inactive)	15.2 µM (inactive)	13.6 µM (inactive)	85.3 µM (inactive)	30.5 µM (inactive)	24.7 µM (inactive)	22.3 µM (inactive)	19.7 µM (inactive)	14.1 µM (inactive)		31.3 µM (inactive)	39 µM (inactive)	21.2 µM (inactive)	22.9 µM (inactive)	43 µM (inactive)	3.22 µM (inactive)			
CCOC(=O)C1=C(C(=O)OCC)C2(c3ccccc3)N(O1)c1ccccc1C2(C)C (stereo not given)	26.7 µM (inactive)	51.5 µM (inactive)	32.4 µM (inactive)		69.3 µM (inactive)	42.7 µM (inactive)	58.1 µM (inactive)	38.5 µM (inactive)	39.5 µM (inactive)	46.9 µM (inactive)	20.7 µM (inactive)	45.5 µM (inactive)	56.4 µM (inactive)	30.1 µM (inactive)	> 100 µM (inactive)	46 µM (inactive)			
COc1cc(CNc2nc3c(N)cc(C(F)(F)F)cc3nc2-c2ccccc2)cc(OC)c1OC	> 10 µM (inactive)	38.5 µM (inactive)	19.7 µM (inactive)	22.8 µM (inactive)	13.4 µM (inactive)	12.1 µM (inactive)	18 µM (inactive)	47.1 µM (inactive)	25.9 µM (inactive)	36.1 µM (inactive)	47.3 µM (inactive)	37.7 µM (inactive)	21.3 µM (inactive)	> 10 µM (inactive)	> 10 µM (inactive)	8.47 µM (inactive)			
O=C1NC(=O)C(C(=O)C(=O)Nc2ccc(Br)cc2)C(=O)N1		> 100 µM (inactive)	> 100 µM (inactive)	> 100 µM (inactive)	> 100 µM (inactive)	> 100 µM (inactive)		> 100 µM (inactive)		> 100 µM (inactive)	> 100 µM (inactive)	> 100 µM (inactive)	> 100 µM (inactive)	> 100 µM (inactive)		5.04 µM (inactive)			
CC[n+]1c(/C=C/c2ccc(N(CCCl)CCCl)cc2)ccc2cc(Br)ccc21	2.62 µM (inactive)	69.7 µM (inactive)	131 µM (inactive)	1.06 µM (active)	2.86 µM (inactive)	0.361 µM (active)	1.68 µM (inactive)	1.87 µM (inactive)	2.65 µM (inactive)	0.587 µM (active)	2.53 µM (inactive)	2.65 µM (inactive)	1.1 µM (active)	2.23 µM (inactive)	4.48 µM (inactive)	1.31 µM (inactive)			
C=CC[P@]1(=O)O[C@H](c2ccccc2)C(C)N1C(C)C (stereo not given in full)		> 100 µM (inactive)	> 100 µM (inactive)	> 100 µM (inactive)	> 100 µM (inactive)	> 100 µM (inactive)	> 100 µM (inactive)	> 100 µM (inactive)	> 100 µM (inactive)	> 100 µM (inactive)	> 100 µM (inactive)	> 100 µM (inactive)	> 100 µM (inactive)	> 100 µM (inactive)	> 100 µM (inactive)	> 100 µM (inactive)			
